Reference: patent US20230348583A1, “TGFbeta1-BINDING IMMUNOGLOBULINS AND USE THEREOF” (SCHOLAR ROCK, INC., priority 2016, published 2023)

Assays:
rats = settings: Frazier et al. 2007; cited from earlier work
rats and dogs = settings: Stauber et al. 2014; cited from earlier work
female F344/NHsd rats = test: Rat toxicity study; settings: for Aortic root: Hemorrhage, Minimal / Aortic root: Infiltrate, mixed cell, Minimal / Atrium: Hemorrhage, Minimal / Atrium: Hyperplasia, endothelium, Minimal / Atrium: Infiltrate, mixed cell, Minimal / Atrium: Infiltrate, mixed cell, Slight / Coronary artery: Necrosis with inflammation, Slight / Heart valves: Valvulopathy, Minimal / Heart valves: Valvulopathy, Moderate / Heart valves: Valvulopathy, Slight / Myocardium: Degeneration/necrosis, Minimal / Myocardium: Degeneration/necrosis, Slight / Myocardium: Hemorrhage, Slight / Myocardium: Infiltrate, mixed cell, Slight: animals affected (n=5)
Method: Animal body weight was determined at days 1, 3, and 7 of the dosing phase. Animals were sacrificed at day 8 and necropsies performed.

cynomolgus macaques = settings: cynomolgus monkey, in vivo; cited from earlier work
human cancer patients = settings: in vivo; cited from earlier work

O=C(NC1CCOCC1)c1ccc(-c2cc(-c3c[nH]nc3-c3ccccn3)ccn2)cc1 [GW788388]
Bone toxicity in rats (rats): induced physeal dysplasia

Cc1cccc(-c2nn3c(c2-c2ccnc4ccc(C(N)=O)cc24)CCC3)n1 [LY2157299]
Organ toxicities on chronic (≥3 months) administration (rats and dogs): caused multiple organ toxicities

c1ccc(-c2nn3c(c2-c2ccnc4cc(OCCN5CCOCC5)ccc24)CCC3)nc1 [LY2109761]
Body weight during the dosing phase (female F344/NHsd rats; 200 mg/kg or 300 mg/kg): decreased body weight | Animals found dead (female F344/NHsd rats; 200 mg/kg oral gavage once daily, n=5, day 7): Two | Mortality (female F344/NHsd rats; 300 mg/kg oral gavage once daily, all animals (n=5), days 3, 6, or 7): sacrificed in a moribund condition or found dead | Heart, Absolute Weight (female F344/NHsd rats; LY2109761 200 mg/kg/day): 112 percentage control mean value | Heart, Body Weight Ratio (female F344/NHsd rats; LY2109761 200 mg/kg/day): 132 percentage control mean value | Heart, Brain Weight Ratio (female F344/NHsd rats; LY2109761 200 mg/kg/day): 113 percentage control mean value | Aortic root: Hemorrhage, Minimal (female F344/NHsd rats; LY2109761 200 mg/kg/day): 1 | Aortic root: Infiltrate, mixed cell, Minimal (female F344/NHsd rats; LY2109761 200 mg/kg/day): 1 | Atrium: Hemorrhage, Minimal (female F344/NHsd rats; LY2109761 200 mg/kg/day): 1 | Atrium: Hyperplasia, endothelium, Minimal (female F344/NHsd rats; LY2109761 200 mg/kg/day): 1 | Atrium: Infiltrate, mixed cell, Minimal (female F344/NHsd rats; LY2109761 200 mg/kg/day): 2 | Atrium: Infiltrate, mixed cell, Slight (female F344/NHsd rats; LY2109761 200 mg/kg/day): 0 | Coronary artery: Necrosis with inflammation, Slight (female F344/NHsd rats; LY2109761 200 mg/kg/day): 0 | Heart valves: Valvulopathy, Minimal (female F344/NHsd rats; LY2109761 200 mg/kg/day): 1 | Heart valves: Valvulopathy, Moderate (female F344/NHsd rats; LY2109761 200 mg/kg/day): 1 | Heart valves: Valvulopathy, Slight (female F344/NHsd rats; LY2109761 200 mg/kg/day): 3 | Myocardium: Degeneration/necrosis, Minimal (female F344/NHsd rats; LY2109761 200 mg/kg/day): 0 | Myocardium: Degeneration/necrosis, Slight (female F344/NHsd rats; LY2109761 200 mg/kg/day): 1 | Myocardium: Hemorrhage, Slight (female F344/NHsd rats; LY2109761 200 mg/kg/day): 1 | Myocardium: Infiltrate, mixed cell, Slight (female F344/NHsd rats; LY2109761 200 mg/kg/day): 0 | Aortic root: Hemorrhage, Minimal (female F344/NHsd rats; LY2109761 300 mg/kg/day): 0 | Aortic root: Infiltrate, mixed cell, Minimal (female F344/NHsd rats; LY2109761 300 mg/kg/day): 0 | Atrium: Hemorrhage, Minimal (female F344/NHsd rats; LY2109761 300 mg/kg/day): 2 | Atrium: Hyperplasia, endothelium, Minimal (female F344/NHsd rats; LY2109761 300 mg/kg/day): 3 | Atrium: Infiltrate, mixed cell, Minimal (female F344/NHsd rats; LY2109761 300 mg/kg/day): 3 | Atrium: Infiltrate, mixed cell, Slight (female F344/NHsd rats; LY2109761 300 mg/kg/day): 1 | Coronary artery: Necrosis with inflammation, Slight (female F344/NHsd rats; LY2109761 300 mg/kg/day): 1 | Heart valves: Valvulopathy, Minimal (female F344/NHsd rats; LY2109761 300 mg/kg/day): 2 | Heart valves: Valvulopathy, Moderate (female F344/NHsd rats; LY2109761 300 mg/kg/day): 0 | Heart valves: Valvulopathy, Slight (female F344/NHsd rats; LY2109761 300 mg/kg/day): 3 | Myocardium: Degeneration/necrosis, Minimal (female F344/NHsd rats; LY2109761 300 mg/kg/day): 1 | Myocardium: Degeneration/necrosis, Slight (female F344/NHsd rats; LY2109761 300 mg/kg/day): 1 | Myocardium: Hemorrhage, Slight (female F344/NHsd rats; LY2109761 300 mg/kg/day): 0 | Myocardium: Infiltrate, mixed cell, Slight (female F344/NHsd rats; LY2109761 300 mg/kg/day): 1 | Animals with abnormally-shaped sternum (female F344/NHsd rats; each of 200 mg/kg and 300 mg/kg groups, n=5): four | Clear fluid in the thoracic cavity (female F344/NHsd rats; one animal at 300 mg/kg found dead on Day 3, with enlarged thymus (edema)): 2.5 mL | Heart weight (female F344/NHsd rats; ≥200 mg/kg): Increased heart weights | Microscopic heart valve findings (female F344/NHsd rats; ≥200 mg/kg): exhibited heart valve findings (i.e., valvulopathy)

Fresolimumab: a pan TGFβ antibody capable of neutralizing all human isoforms of TGFβ
Toxicity after multiple administrations (cynomolgus macaques): induce an epithelial hyperplasia of the gingiva, bladder, and of the nasal turbinate epithelium | Most notable adverse reaction in clinical trials (human cancer patients): induction of cutaneous keratoacanthomas and/or squamous cell carcinomas
